Measurements published in patent US9510598B2, “Nitrogen-containing heterocyclic compounds for plant disease control” (BAYER CROPSCIENCE AG, priority 2012, dated 2016).

Format: physicochemical
Details: HPLC on reversed phase columns, method [a]: pH 2.7, 0.1% formic acid in water / acetonitrile, linear gradient 10% to 95% acetonitrile

SMILES	log P
CCCSc1cnc2ccc(C3=NOC(C)(C(=O)NCc4cn(CC)nc4C)C3)cc2c1 (centres unmarked) [compound 264]	2.76^[a]
O=C(NC1CC1)C1(C2CC2)CC(c2ccc3ncc(Br)cc3c2)=NO1 (centres unmarked) [compound 269]	2.88[a]
CC(C)NC(=O)C12CCCCC1C(c1ccc3ncc(Br)cc3c1)=NO2 (centres unmarked) [compound 272]	3.55[a]
COc1nc2ccc(C3=NOC(C)(C(=O)NC(C)C)C3)cc2cc1Br (centres unmarked) [compound 275]	3.54[a]
COCC#CC(C)(C)NC(=O)C1(C)CC(c2ccc3ncc(Br)cc3c2)=NO1 (centres unmarked) [compound 299]	3.19[a]
C#Cc1cnc2ccc(C3=NOC(C)(C(=O)NC(C)CC(C)C)C3)cc2c1 (centres unmarked) [compound 316]	3.37[a]
CC1(C(=O)NC2CC2)CC(c2ccc3ncc(Br)cc3c2)=NO1 (centres unmarked) [compound 317]	2.40[a]
C#Cc1cnc2ccc(C3=NOC(C)(C(=O)NC(COc4ccc(F)cc4)C4CC4)C3)cc2c1 (centres unmarked) [compound 318]	3.58[a]
CC(C)(C)NC(=O)C1(C)CC(c2ccc3ncc(Br)cc3c2)=NO1 (centres unmarked) [compound 319]	3.39[a]
CC(C)CC(C)NC(=O)C1(C)CC(c2ccc3ncc(Br)cc3c2)=NO1 (centres unmarked) [compound 321]	3.80[a]
CC(C)CCC(C)NC(=O)C1(C)CC(c2ccc3ncc(Br)cc3c2)=NO1 (centres unmarked) [compound 328]	4.21[a]
CC(NC(=O)C1(C)CC(c2ccc3ncc(Br)cc3c2)=NO1)c1ccc(OC(F)(F)F)cc1 (centres unmarked) [compound 344]	4.16[a]
C#Cc1cnc2ccc(C3=NOC(C)(C(=O)NC(C)c4ccc(Cl)cc4)C3)cc2c1 (centres unmarked) [compound 346]	3.44[a]
C#Cc1cnc2ccc(C3=NOC(C)(C(=O)NC(C)c4nn(C)c(=O)n4C)C3)cc2c1 (centres unmarked) [compound 352]	1.76[a]
CC1(C(=O)NC(C#N)c2ccccc2)CC(c2ccc3ncc(Br)cc3c2)=NO1 (centres unmarked) [compound 356]	3.25[a]
CC1(C(=O)NC(c2cccc(Cl)c2)C(F)(F)F)CC(c2ccc3ncc(Br)cc3c2)=NO1 (centres unmarked) [compound 360]	4.39[a]

Now from value to compound:

log P	SMILES
2.96^[a]	CCn1cc(CNC(=O)C2(C)CC(c3ccc4nc(OC)c(Br)cc4c3)=NO2)c(C)n1 (centres unmarked) [compound 263]
3.21[a]	CCOCCCNC(=O)C1(C2CC2)CC(c2ccc3ncc(Br)cc3c2)=NO1 (centres unmarked) [compound 270]
3.04[a]	CC(C)NC(=O)C1(C)ON=C(c2ccc3ncc(Br)cc3c2)C1C (centres unmarked) [compound 274]
2.39[a]	CCSc1cnc2ccc(C3=NOC(C)(C(=O)NCc4cn(CC)nc4C)C3)cc2c1 (centres unmarked) [compound 276]
2.69[a]	CC(C)NC(=O)C1(F)CC(c2ccc3ncc(Br)cc3c2)=NO1 (centres unmarked) [compound 280]
2.88[a]	CC(=O)C1(C(=O)NC(C)C)CC(c2ccc3ncc(Br)cc3c2)=NO1 (centres unmarked) [compound 281]
3.76[a]	CCC1C(c2ccc3ncc(Br)cc3c2)=NOC1(C)C(=O)NC(C)C (centres unmarked) [compound 283]
1.80[a]	CCn1cc(CNC(=O)C2(C)CC(c3ccc4ncc(C#N)cc4c3)=NO2)c(C)n1 (centres unmarked) [compound 288]
1.23[a]	CN(C)CCCNC(=O)C1(C)CC(c2ccc3ncc(Br)cc3c2)=NO1 (centres unmarked) [compound 297]
2.57[a]	CCn1cc(CNC(=O)C2(C)CC(c3ccc4nc(C#N)c(Br)cc4c3)=NO2)c(C)n1 (centres unmarked) [compound 302]
3.00[a]	CC(C)NC(=O)C1(C)CC(c2ccc3nc(C#N)c(Br)cc3c2)=NO1 (centres unmarked) [compound 303]
1.95[a]	C=Cc1cnc2ccc(C3=NOC(C)(C(=O)NCc4cn(CC)nc4C)C3)cc2c1 (centres unmarked) [compound 308]
3.27[a]	CC1CCCC1(C#N)NC(=O)C1(C)CC(c2ccc3ncc(Br)cc3c2)=NO1 (centres unmarked) [compound 313]
3.99[a]	CC1(C(=O)NC(COc2ccc(F)cc2)C2CC2)CC(c2ccc3ncc(Br)cc3c2)=NO1 (centres unmarked) [compound 315]
3.71[a]	C#Cc1cnc2ccc(C3=NOC(C)(C(=O)NC(C)(C)C(C)C)C3)cc2c1 (centres unmarked) [compound 320]
2.88[a]	C#Cc1cnc2ccc(C3=NOC(C)(C(=O)NC(C#N)c4ccccc4)C3)cc2c1 (centres unmarked) [compound 324]
4.19[a]	CC(C)C(C)(C)NC(=O)C1(C)CC(c2ccc3ncc(Br)cc3c2)=NO1 (centres unmarked) [compound 325]
1.99[a]	CC(NC(=O)C1(C)CC(c2ccc3ncc(Br)cc3c2)=NO1)c1nn(C)c(=O)n1C (centres unmarked) [compound 327]
4.09[a]	CC(NC(=O)C1(C)CC(c2ccc3ncc(Br)cc3c2)=NO1)c1cccc2ccccc12 (centres unmarked) [compound 340]
3.71[a]	C#Cc1cnc2ccc(C3=NOC(C)(C(=O)NC(C)c4ccc(OC(F)(F)F)cc4)C3)cc2c1 (centres unmarked) [compound 342]
3.87[a]	CC(NC(=O)C1(C)CC(c2ccc3ncc(Br)cc3c2)=NO1)c1ccc(Cl)cc1 (centres unmarked) [compound 348]
3.92[a]	C#Cc1cnc2ccc(C3=NOC(C)(C(=O)NC(c4cccc(C)c4)C(F)(F)F)C3)cc2c1 (centres unmarked) [compound 354]
4.36[a]	Cc1cccc(C(NC(=O)C2(C)CC(c3ccc4ncc(Br)cc4c3)=NO2)C(F)(F)F)c1 (centres unmarked) [compound 358]
3.69[a]	C#Cc1cnc2ccc(C3=NOC(C)(C(=O)NC(CN(C)c4ccccc4)C4CC4)C3)cc2c1 (centres unmarked) [compound 359]

Same assay, conditions: method [a]: HPLC/LC-MS on reversed phase at pH 2.7, 0.1% formic acid in water / acetonitrile, gradient 10% to 95% acetonitrile

SMILES	log P
CC1(C(=O)NC(CN2CCCC2)C2CC2)CC(c2ccc3ncc(Br)cc3c2)=NO1 (centres unmarked) [compound 364]	1.53[a]
C#Cc1cc2cc(C3=NOC(C)(C(=O)NC(C)C)C3)ccc2nc1C#N (centres unmarked) [compound 404]	2.77[a]
CCn1cc(CNC(=O)C2(C)CC(c3ccc4ncc(C(F)=CC(F)(F)F)cc4c3)=NO2)c(C)n1 (centres unmarked) [compound 405]	2.84[a]
C#Cc1cnc2ccc(C3=NOC(C)(C(=O)NC(COC)COC)C3)cc2c1 (centres unmarked) [compound 459]	2.30[a]
CC1(C(=O)NCc2ccsc2)CC(c2ccc3ncc(Br)cc3c2)=NO1 (centres unmarked) [compound 479]	3.07[a]
COc1nc2ccc(C3=NOC(C)(C(=O)NC(C)C)C3)cc2cc1I (centres unmarked) [compound 485]	3.72[a]
CC1(C(=O)NCc2nccs2)CC(c2ccc3ncc(Br)cc3c2)=NO1 (centres unmarked) [compound 488]	2.32[a]

Next, values leading:

log P	SMILES
4.19[a]	CN(CC(NC(=O)C1(C)CC(c2ccc3ncc(Br)cc3c2)=NO1)C1CC1)c1ccccc1 (centres unmarked) [compound 362]
4.66[a]	CC(C)NC(=O)C1(C[Si](C)(C)C)CC(c2ccc3ncc(Br)cc3c2)=NO1 (centres unmarked) [compound 395]
2.83[a]	CCn1cc(CNC(=O)C2(C[Si](C)(C)C)CC(c3ccc4ncc(Br)cc4c3)=NO2)c(C)n1 (centres unmarked) [compound 413]
2.44[a]	CCn1cc(CNC(=O)C2(C)CC(c3ccc4ncc(NC(=O)OC(C)(C)C)cc4c3)=NO2)c(C)n1 (centres unmarked) [compound 421]
1.52[a]	C#Cc1cnc2ccc(C3=NOC(C)(C(=O)NC4=NCCO4)C3)cc2c1 (centres unmarked) [compound 460]
3.15[a]	CCn1cc(CNC(=S)C2(OC)CC(c3ccc4ncc(Br)cc4c3)=NO2)c(C)n1 (centres unmarked) [compound 478]
1.60[a]	CCn1cc(CNC(=O)C2(C)CC(c3ccc4nc(C(N)=O)c(I)cc4c3)=NO2)c(C)n1 (centres unmarked) [compound 484]
3.50[a]	CC(C)NC(=O)C1(C)CC(c2ccc3nc(Cl)c(I)cc3c2)=NO1 (centres unmarked) [compound 486]
2.28[a]	Cc1ncsc1CNC(=O)C1(C)CC(c2ccc3ncc(Br)cc3c2)=NO1 (centres unmarked) [compound 487]
